In PubChem BioAssay (NCI):
Values joined by “and” are separate entries in the source; they are usually repeats but may differ in a detail not shown here. Identical values can stand only once.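 All cell lines were grown in 96-well plates and treated with compound for 48 hours. GI50 marks 50% less growth. TGI denotes the concentration required for complete inhibition of growth.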

How the values were obtained:
Assay in all cases: inhibition of tumour cell growth, NCI panel, 48 h
NCI-H522 lung = test system: NCI-H522 lung
ACHN renal = test system: ACHN renal
HCT-116 colon = test system: HCT-116 colon
OVCAR-5 ovarian = test system: OVCAR-5 ovarian
SNB-75 CNS = test system: SNB-75 CNS
UACC-257 melanoma = test system: UACC-257 melanoma
EKVX NSCLC = test system: EKVX NSCLC
MALME-3M melanoma = test system: MALME-3M melanoma
T-47D breast = test system: T-47D breast
NCI/ADR-RES ovarian = test system: NCI/ADR-RES ovarian
MCF7 breast = test system: MCF7 breast

Row | SMILES | TGI (NCI-H522 lung) | TGI (ACHN renal) | TGI (HCT-116 colon) | TGI (OVCAR-5 ovarian) | TGI (SNB-75 CNS) | TGI (UACC-257 melanoma) | TGI (EKVX NSCLC) | TGI (MALME-3M melanoma) | TGI (T-47D breast) | TGI (NCI/ADR-RES ovarian) | TGI (MCF7 breast) | GI50 (EKVX NSCLC) | GI50 (NCI-H522 lung) | GI50 (UACC-257 melanoma)
1 | CCCCC#C[I+]c1ccccc1 | 15.5 µM | 30.9 µM | 30 µM | 28 µM | 30.1 µM | 30.8 µM | 33.4 µM | 28.2 µM | – | – | – | – | – | –
2 | O=C1/C(=C\c2ccccc2)C(NC2CCCCC2)c2ccccc21 (stereo unspecified) | 2.05 µM | 2.34 µM | 2.44 µM | 10.4 µM | 4.45 µM | 2.69 µM | 11.2 µM | 3.01 µM | 4.69 µM | 98.5 µM | 2.67 µM | – | – | –
3 | CCOC(=O)c1cn2c(n1)sc1cccc(C)c12 | > 100 µM | > 100 µM | > 100 µM | > 100 µM | > 100 µM | > 100 µM | > 100 µM | > 100 µM | – | > 100 µM | > 100 µM | – | – | –
4 | CC(C)(C)OC(=O)N[C@H]1CCN(C2CCCCC2)C1=O | – | > 100 µM | > 100 µM | > 100 µM | > 100 µM | – | > 100 µM | – | – | > 100 µM | > 100 µM | – | – | –
5 | Nc1nc(SCCc2ccccc2)c2[nH]cnc2n1 | > 100 µM | > 100 µM | > 100 µM | > 100 µM | > 100 µM | 67.5 µM | 78.8 µM | > 100 µM | > 100 µM | > 100 µM | – | – | – | –
6 | O=C(NC(=O)c1ccccc1[N+](=O)[O-])Nc1ccc(Oc2ncc(Br)cn2)c(Cl)c1 | 0.0378 µM and 0.198 µM | 0.0688 µM | – | 0.0522 µM | – | 0.0434 µM | – | 0.0537 µM | – | 0.0589 µM | – | 0.868 µM | – | –
7 | Cc1n[nH]c(=O)n1/N=C/c1ccc(Cl)cc1 | > 100 µM | > 100 µM | > 100 µM | > 100 µM | > 100 µM | > 100 µM | 72.5 µM | – | > 100 µM | > 100 µM | – | – | – | –
8 | COc1cccc(C(=O)O[C@H]2[C@@H]3[C@]4(OC(C)=O)CO[C@@H]4C[C@H](O)[C@@]3(C)C(=O)[C@H](OC(C)=O)C3=C(C)[C@@H](OC(=O)[C@H](O)[C@@H](NC(=O)OC(C)(C)C)c4ccco4)C[C@]2(O)C3(C)C)c1 | 0.157 µM | > 37.5 µM | 9.93 µM | > 22.8 µM | 0.0241 µM | > 37.5 µM | > 28.9 µM | > 37.5 µM | – | > 18.3 µM | > 37.5 µM | – | – | –
9 | CCC(C(=O)O)c1ccc(OC)cc1 (stereo unspecified) | > 100 µM | > 100 µM | > 100 µM | > 100 µM | > 100 µM | > 100 µM | > 100 µM | > 100 µM | – | – | – | – | – | –
10 | COc1cc(C(=O)N(C(=S)OCc2ccccn2)c2ccccc2)cc(OC)c1OC | – | > 100 µM | > 100 µM | > 100 µM | – | > 100 µM | 79.9 µM | 62 µM | > 100 µM | > 100 µM | > 100 µM | – | – | –
11 | COc1ccc(COCCOCc2nc(C#N)c(N)o2)cc1 | 75.8 µM | > 100 µM | > 100 µM | > 100 µM | > 100 µM | > 100 µM | > 100 µM | – | > 100 µM | > 100 µM | > 100 µM | – | – | –
12 | Cc1ccc(C(=O)O)cc1S(=O)(=O)Nn1cnc2ccc(S(=O)(=O)Nc3ccccc3C(=O)O)cc2c1=O | > 100 µM | > 100 µM | > 100 µM | > 100 µM | > 100 µM | > 100 µM | > 100 µM | > 100 µM | – | > 100 µM | > 100 µM | – | – | –
13 | O=[N+]([O-])c1ccc2c(c1)c(OCc1ccccc1)nn2Cc1ccccc1 | > 100 µM | > 100 µM | – | > 100 µM | – | > 100 µM | – | > 100 µM | > 100 µM | > 100 µM | > 100 µM | – | – | –
14 | CC(C)=CCc1c2c(c3occ(-c4ccc(O)cc4)c(=O)c3c1O)CC(C(C)(C)O)O2 (stereo unspecified) | 34 µM | 28 µM | 45.3 µM | 33.8 µM | 31.9 µM | 29.1 µM | – | 36.3 µM | 34.1 µM | 40.6 µM | 28.3 µM | – | – | –
15 | COc1ccc(-c2cc(O)c3nc4ccccc4n3c2)cc1 | > 100 µM | – | > 100 µM | – | > 100 µM | > 100 µM | > 100 µM | > 100 µM | – | > 100 µM | > 100 µM | – | – | –
16 | Cc1cn2c(/C=N/N=C(N)N)c(-c3cccc([N+](=O)[O-])c3)nc2s1 | 3.91 µM | 3.03 µM | > 100 µM | 5.5 µM | – | 4.22 µM | 5.39 µM | 3.94 µM | – | > 100 µM | 2.12 µM | – | – | –
17 | C1CN(c2nc3c(nnc4nc(N5CCOCC5)sc43)s2)CCO1 | > 100 µM | > 100 µM | > 100 µM | > 100 µM | – | > 100 µM | > 100 µM | > 100 µM | > 100 µM | > 100 µM | > 100 µM | – | – | –
18 | O=C(CCN1CCCCC1)C(=Cc1ccccc1)C(=O)CCN1CCCCC1 | – | – | > 100 µM | > 100 µM | > 100 µM | > 100 µM | > 100 µM | – | – | > 100 µM | > 100 µM | – | 15.1 µM | 87.4 µM
19 | C=CC1(C)CCC2C(=CCC3C2(C)CC(O)C(O)C3(C)COC2OC(C(=O)O)C(O)C(O)C2O)C1 (stereo unspecified) (tested in a mixture with another compound) | > 100 µM | > 100 µM | > 100 µM | > 100 µM | > 100 µM | > 100 µM | > 100 µM | > 100 µM | > 100 µM | – | > 100 µM | – | – | –
20 | COC(=O)C([C@H](NC1(c2ccccc2)c2ccccc2-c2ccccc21)C(=O)OC)N(NC(=O)OCc1ccccc1)C(=O)OCc1ccccc1 (mixture of isomers) | > 100 µM | > 100 µM | > 100 µM | > 100 µM | – | > 100 µM | > 100 µM | > 100 µM | > 100 µM | > 100 µM | > 100 µM | – | – | –
21 | CCOC(=O)c1csc(NC(=O)CN2CCOCC2)n1 | – | > 100 µM | – | > 100 µM | > 100 µM | > 100 µM | > 100 µM | – | > 100 µM | > 100 µM | > 100 µM | – | – | –
22 | COc1ccc(C2CC(c3c(O)ccc4ccccc34)=NN2C(C)=O)cc1OC (stereo unspecified) | > 100 µM | > 100 µM | 28.6 µM | > 100 µM | > 100 µM | > 100 µM | – | 92.1 µM | > 100 µM | > 100 µM | 71.5 µM | – | – | –
